# B1: rSFRP1: recombinant secreted frizzled-related protein 1, used as pharmacologic agonist (protein, UniProt Q8N474 32-314, looked up)
# Secreted frizzled-related …: SEYDYVSFQSDIGPYQSGRFYTKPPQCVDIPADLRLCHNVGYKKMVLPNLLEHETMAEVKQQASSWVPLLNKNCHAGTQVFLCSLFAPVCLDRPIYPCRWLCEAVRDSCEPVMQFFGFYWPEMLKCDKFPEGDVCIAMTPPNATEASKPQGTTVCPPCDNELKSEAIIEHLCASEFALRMKIKEVKKENGDKKIVPKKKKPLKLGPIKKKDLKKLVLYLKNGADCPCHQLDNLSHHFLIMGRKVKSQYLLTAIHKWDKKNKEFKNFMKKMKNHECPTFQSVFK
# B2: RPC4046: recombinant humanized monoclonal antibody against IL-13 (antibody, chains of the INN, looked up, V domains shown)
# VH: EVTLRESGPGLVKPTQTLTLTCTLYGFSLSTSDMGVDWIRQPPGKGLEWLAHIWWDDVKRYNPALKSRLTISKDTSKNQVVLKLTSVDPVDTATYYCARTVSSGYIYYAMDYWGQGTLVTVSS
# VL: DIQMTQSPSSLSASVGDRVTISCRASQDIRNYLNWYQQKPGKAPKLLIFYTSKLHSGVPSRFSGSGSGTDYTLTISSLQPEDIATYYCQQGNTLPLTFGGGTKVEIK
# Experiments:
# STAT3 = biological target: T1, STAT3 (Homo sapiens, UniProt P40763); experiment: Western blot of EPC2-ALI for total and phosphorylated STAT3; format: cell-based; conditions: SD-36 10 uM
# T1 construct: endogenous in cells; host or cells: hTERT-EPC2 human esophageal epithelial keratinocytes at air-liquid interface (EPC2-ALI)
# Description: (§1) EPC2-ALI culture—hTERT immortalized human esophageal epithelial keratinocytes (hTERT-EPC2) were cultured under air-liquid-interface conditions as described 9, 41. In brief, EPC2-hTERT cells were seeded onto permeable (0.4 μm) transwell support (Corning Incorporated, Corning, NY, USA) and grown to confluence while fully submerged in low-calcium ([Ca2+]=0.09 mM) keratinocyte serum-free media (K-SFM) (Life Technologies; Carlsbad, CA). Epithelial differentiation was induced by culturing submerged cell monolayers in high-calcium K-SFM ([Ca2+]=1.8 mM) for 4 days (day 3 to 7). Cells were then exposed for 5 days (day 7 to 12) at ALI by removing cell media from the top chamber, to induce stratification.
# Western blot—EPC2 ALI cells and primary esophageal cells were lysed following stimulation, using a protein extraction reagent (10% Glycerol, 20 mM Tris HCl pH7, 137 mM NaCl, 2 mM EDTA, 1% NP-40 in H2O) with Halt™ protease inhibitor cocktail (Thermo Fisher Scientific Incorporated; Rockford, IL, USA) and PhosSTOP phosphatase inhibitor cocktail tablet (Roche Diagnostics; Mannheim, Germany). […] of protein extract were separated on a 4%-12% Bis-Tris gel and transferred to a nitrocellulose membrane (Life Technologies; Carlsbad, CA). […]
# EPC2-ALI cells [1] = experiment: qPCR mRNA expression of EoE proliferation and inflammatory genes in EPC2-ALI; format: cell-based, human; conditions: in the presence of SD-36
# Description: as §1
# Quantitative PCR—RNA was extracted from EPC2-ALI cells by using the Quick-RNA Microprep Kit (Zymo Research Corporation) according to the manufacturer's protocol. Purified RNA (500 ng) was DNase treated and reverse transcribed to cDNA by using Superscript II RNase H Reverse Transcriptase (Thermo Fisher Scientific, Rockford, Ill), according to the manufacturer's instructions. cDNA for ANO1, CAPN14, CCL26, TP63, SFRP1, STAT3 and hypoxanthine phosphoribosyltransferase (HPRT) was quantified by using real-time PCR with the IQ SYBR Green Supermix (Bio-Rad Laboratories, Hercules, Calif) with the CFX96 Touch Real-Time PCR Detection System (Bio-Rad Laboratories). Quantitative PCR (qPCR) analyses were performed by using Bio-Rad CFX Manager Software (version 3.1; Bio-Rad Laboratories), and the results were normalized with HPRT amplified from the same cDNA mix and expressed as fold induction (2^-(ΔΔCT). Primers used for amplification were: […]
# EPC2-ALI cells [2] = experiment: Quantification of Ki67-positive EPC2-ALI cells; format: cell-based, human; conditions: for Ki67+ EPC2-ALI cells under IL-13-stimulation: compared to IL-13 alone; for Ki67+ EPC2-ALI cells, treatment alone: without IL-13, compared to steady-state (Vehicle)
# Description: as §1
# Quantification of Ki67-positive EPC2-ALI cells—EPC2-ALI cells were cultured in the presence or absence of their respective stimulations for 48 hours. For immunofluorescence (IF) staining, formalin- or paraformaldehyde-fixed, paraffin-embedded transwell sections were sectioned, mounted on slides, and deparaffinized by using standard histologic procedures. Slides were then permeabilized in Tris-EDTA (1 mmol/L, pH 9.0) with 0.1% Tween-20, and antigen exposure was performed at 125° C. for 30 seconds in a decloaking chamber by using a pressure cooker. Slides were then blocked by 10% normal donkey serum for 1 hour, followed by overnight incubation of primary antibodies diluted in 10% normal donkey serum at a final concentration of 1 μg/mL: anti-Ki67 (1:1000; clone: SolA15; Invitrogen), slides were then washed and incubated with secondary antibody at RT for 1 hour. Slides were mounted with 4′-6-diamidino-2-phenylindole dihydrochloride Fluoromount-G (SouthernBiotech, Birmingham, Ala) mounting solution. Fluorescent imaging was performed with the Zeiss Apotome fluorescent microscope (Carl Zeiss Meditec, Dublin, Calif) using Nikon Elements software. Ki67+ cells were quantified as the number of Ki67+-labeled cells per total linear length of filter-attached EPC2-ALI cells using FIJI ImageJ. Three filters per condition from 3 individual experiments were quantitated.
# IL4Rα chain = biological target: T2, IL4Rα chain (Homo sapiens, UniProt P24394); conditions: adults with active EoE, weekly subcutaneous injections; cited from earlier work
# T2 construct: adults with active EoE who received weekly subcutaneous injections of dupilumab; host or cells: human patients (in vivo)
# IL-13 = biological target: T3, IL-13 (Homo sapiens, UniProt P35225); conditions: cited from earlier work
# T3 construct: Treatment of adult EoE patients with RPC4046, a recombinant humanized monoclonal antibody against IL-13 improves histologic and endoscopic outcomes; host or cells: human patients (in vivo)
# T3 sequence (P35225 25-146): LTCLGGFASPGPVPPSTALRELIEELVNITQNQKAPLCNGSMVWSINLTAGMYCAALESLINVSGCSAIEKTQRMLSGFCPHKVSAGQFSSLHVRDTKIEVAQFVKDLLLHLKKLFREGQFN
# T1 sequence (P40763 whole entry): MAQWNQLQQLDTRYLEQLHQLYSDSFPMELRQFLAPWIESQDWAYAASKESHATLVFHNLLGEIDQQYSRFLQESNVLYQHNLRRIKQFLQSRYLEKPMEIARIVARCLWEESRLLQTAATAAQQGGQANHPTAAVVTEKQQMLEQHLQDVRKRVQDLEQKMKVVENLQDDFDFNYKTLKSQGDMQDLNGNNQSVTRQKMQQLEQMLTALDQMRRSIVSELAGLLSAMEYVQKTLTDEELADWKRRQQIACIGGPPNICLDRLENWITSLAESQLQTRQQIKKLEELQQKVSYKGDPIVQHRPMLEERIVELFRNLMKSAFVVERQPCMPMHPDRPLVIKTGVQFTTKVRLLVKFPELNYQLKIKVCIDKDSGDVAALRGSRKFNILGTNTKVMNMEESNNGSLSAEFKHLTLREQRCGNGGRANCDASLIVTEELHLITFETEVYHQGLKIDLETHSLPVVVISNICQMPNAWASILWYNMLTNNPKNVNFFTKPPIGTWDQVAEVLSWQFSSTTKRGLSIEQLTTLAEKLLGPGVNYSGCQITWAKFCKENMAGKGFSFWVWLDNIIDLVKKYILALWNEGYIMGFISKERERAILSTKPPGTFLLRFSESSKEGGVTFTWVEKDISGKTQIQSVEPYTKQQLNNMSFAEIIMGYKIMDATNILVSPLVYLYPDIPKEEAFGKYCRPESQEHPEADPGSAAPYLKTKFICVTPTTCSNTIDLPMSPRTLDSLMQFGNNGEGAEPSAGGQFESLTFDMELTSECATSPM
molecule,measurement,setting,value
NC(=O)CC[C@H](NC(=O)[C@@H]1CC[C@@H]2CCN(C(=O)CCCCCC#Cc3cccc4c3CN(C3CCC(=O)NC3=O)C4=O)C[C@H](NC(=O)c3cc4cc(C(F)(F)P(=O)(O)O)ccc4[nH]3)C(=O)N21)C(=O)NC(c1ccccc1)c1ccccc1 (stereo partly drawn) [SD-36],IL-13 induced phosphorylation of STAT3 Y705 and Y727 residues,STAT3; IL-13 100 ng/mL,total loss
same,degradation of STAT3 (total STAT3 protein),STAT3; at steady state and following IL-13-stimulation (100 ng/mL),led to degradation of STAT3
same,IL-13-induced mRNA expression of ANO1,EPC2-ALI cells [1],abolished
same,IL-13-induced mRNA expression of TP63,EPC2-ALI cells [1],abolished
same,"IL-13 induction of canonical EoE inflammatory genes (CCL26, SLC9A3, CAPN14) mRNA",EPC2-ALI cells [1],not significantly inhibited
same,IL-13-induced increase in EPC2-ALI Ki-67+ cells,"EPC2-ALI cells [2]; SD-36 10 uM, IL-13 100 ng/mL, 48 hours",attenuated
O=S(=O)(NC1CCNCC1)c1cc(S(=O)(=O)c2ccccc2)ccc1C(F)(F)F [SFRP1inh],Ki67+ EPC2-ALI cells under IL-13-stimulation,EPC2-ALI cells [2],increase
same,"Ki67+ EPC2-ALI cells, treatment alone",EPC2-ALI cells [2],increase
dupilumab: fully human IgG4 monoclonal antibody that binds the IL4Rα chain and blocks both IL-4 and IL-13 signaling,esophageal distensibility,IL4Rα chain,increased
same,histologic and endoscopic severity scores,IL4Rα chain,decreased
same,peak esophageal eosinophil count,IL4Rα chain,reduced
B1,Ki67+ EPC2-ALI cells under IL-13-stimulation,EPC2-ALI cells [2],decrease
same,"Ki67+ EPC2-ALI cells, treatment alone",EPC2-ALI cells [2],sufficient to inhibit esophageal epithelial proliferation
B2,"endoscopic, histologic and clinical improvement in long-term extension","IL-13; 52-week open-label LTE study, 360 mg/week","sustained endoscopic, histologic and clinical improvement"
same,histologic and endoscopic outcomes,IL-13; adult EoE patients,improves

# From patent publication US20260240940A1, “REGULATING DISEASE OR DISORDER CHARACTERIZED BY ESOPHAGEAL EPITHELIAL PROLIFERATION THROUGH SECRETED FRIZZLED-RELATED PROTEIN 1 (SFRP1)” (The Regents of the University of Michigan, priority 2023, published 2026)
